What was measured:
Format in all cases: biochemical
[1] = system: Joinvillea ascendens JaPAL variant S112I (JaPAL^S112I), SEQ ID NO: 258; experiment: TAL and PAL enzyme kinetics; details: PAL assay (L-Phe), pH 8.5, 30° C.
Description: (§1) To test this hypothesis further, the reciprocal S112I mutation was introduced into the JaPAL^F140H single mutant to generate the JaPAL^F140H_S112I double mutant. For comparison, a single mutant in which the residue corresponding to Ser112 was converted to Ile (i.e., JaPAL^S112I) was generated as well.
(§2) A mixture containing 100 mM Tris-HCl (pH 8.5), 1% glycerol, and purified enzyme in a total volume of 50 μl was preincubated for 3 min at 30° C. […] The reactions were terminated by addition of 6N acetic acid (10 μl).
(§3) The kinetic parameters of the recombinant enzymes were determined using HPLC. Reaction mixtures containing 100 mM Tris-HCl (pH 8.5), 1% glycerol, and purified enzyme (0.15 μg for PAL assay and 1 μg for TAL assay) in a 50 μl total volume were preincubated for 3 min at 30° C. […] After 10 min and 20 min incubations for PAL and TAL assay, respectively, at 30° C., the reaction was terminated by addition of 6N acetic acid (10 μl). […] The products were quantified using calibration curves generated using authentic standards. Non-linear hyperbolic regression analyses were conducted using the Excel Solver tool to calculate Km and Vmax values.

[2] = system: Joinvillea ascendens JaPAL variant F140H/S112I (JaPAL^F140H_S112I), SEQ ID NO: 145; experiment: TAL and PAL enzyme kinetics; details: PAL assay (L-Phe), pH 8.5, 30° C.
Description: as §1, §2, §3

[3] = system: Joinvillea ascendens JaPAL^F140H_MUT8 variant L138I; experiment: TAL and PAL enzyme kinetics; details: PAL assay (L-Phe), pH 8.5, 30° C.
Description: (§4) To determine which of the 8 circle residues are essential in the conversion of PAL enzymes to PTAL enzymes (FIG. 3C), we mutated, one by one, each one of these 8 residues back to the PAL type in JaPAL^F140H_MUT8 and determined their effects on catalytic efficiency.
as §2, §3

[4] = system: Joinvillea ascendens JaPAL^F140H_MUT8 variant G121A; experiment: TAL and PAL enzyme kinetics; details: PAL assay (L-Phe), pH 8.5, 30° C.
Description: as §4, §2, §3

[5] = system: Joinvillea ascendens JaPAL^F140H_MUT8 variant S267A; experiment: TAL and PAL enzyme kinetics; details: PAL assay (L-Phe), pH 8.5, 30° C.
Description: as §4, §2, §3

[6] = system: Joinvillea ascendens JaPAL^F140H_MUT8 variant A448S; experiment: TAL and PAL enzyme kinetics; details: PAL assay (L-Phe), pH 8.5, 30° C.
Description: as §4, §2, §3

[7] = system: Joinvillea ascendens JaPAL^F140H_MUT8 variant I122S (in Table 3; I112S in text); experiment: TAL and PAL enzyme kinetics; details: PAL assay (L-Phe), pH 8.5, 30° C.
Description: as §4, §2, §3

[8] = system: Joinvillea ascendens JaPAL^F140H_MUT8 variant V500I; experiment: TAL and PAL enzyme kinetics; details: PAL assay (L-Phe), pH 8.5, 30° C.
Description: as §4, §2, §3

[9] = system: Joinvillea ascendens JaPAL^F140H_MUT8 variant T444P; experiment: TAL and PAL enzyme kinetics; details: PAL assay (L-Phe), pH 8.5, 30° C.
Description: as §4, §2, §3

[10] = system: Joinvillea ascendens JaPAL^F140H_MUT8 variant I102V; experiment: TAL and PAL enzyme kinetics; details: PAL assay (L-Phe), pH 8.5, 30° C.
Description: as §4, §2, §3

[11] = system: PTAL^H140F mutants (SbPTAL^H123F, BdPTAL^H123F, SaPTAL-a^H118F, SaPTAL-b^H126F, EmoPTAL^H127F, JaPTAL^H125F); experiment: TAL and PAL enzyme kinetics, group of enzymes; details: on average
Source text: To experimentally test the role of His 140 in the acquisition of TAL activity, we next conducted site-directed mutagenesis on the PAL and PTAL enzymes of grasses and non-grass graminids characterized above and analyzed their effects on TAL activity. For the PAL enzymes, the residue corresponding to Phe 140 was converted to His to generate JaPAL^F140H EmoPAL^F134H, BdPAL^F137H, and SbPAL^F135H. […] For the PTAL enzymes, the residue corresponding to His 140 was converted to Phe to generate SbPTAL^H123F, BdPTAL^H123F, SaPTAL-a^H118F, SaPTAL-b^H126F, EmoPTAL^H127F, and JaPTAL^H125F. […] Thus, unlike in the bacterial TAL enzyme (Watts et al., 2006), other residues besides the His 140 are likely important for the acquisition of strong TAL activity in the PTAL enzymes of grasses and closely-related non-grass graminids.
The kinetic parameters of the recombinant enzymes were determined using HPLC. Reaction mixtures containing 100 mM Tris-HCl (pH 8.5), 1% glycerol, and purified enzyme (0.15 μg for PAL assay and 1 μg for TAL assay) in a 50 μl total volume were preincubated for 3 min at 30° C. PAL and TAL reactions were started by addition of 50 μl substrate solution prepared with 0-4 mM L-Phe and 0-2 mM L-Tyr. After 10 min and 20 min incubations for PAL and TAL assay, respectively, at 30° C., the reaction was terminated by addition of 6N acetic acid (10 μl). […] The products were quantified using calibration curves generated using authentic standards. Non-linear hyperbolic regression analyses were conducted using the Excel Solver tool to calculate Km and Vmax values.

[12] = system: PAL^F140H mutants (JaPAL^F140H, EmoPAL^F134H, BdPAL^F137H, SbPAL^F135H); experiment: TAL and PAL enzyme kinetics, group of enzymes; details: PAL activity, on average
Description: as §3

grass PTAL enzymes = experiment: TAL and PAL enzyme kinetics, group of enzymes; details: PAL activity (L-Phe), range over grass PTAL enzymes
Description: as §3

## N[C@@H](Cc1ccccc1)C(=O)O [L-Phe, phenylalanine]
[1]
  Km: 2.6 ± 0.5 µM
  kcat: 0.21 ± 0.04 s⁻¹
  kcat/Km: 79800 ± 0 M⁻¹ s⁻¹
[2]
  Km: 67.3 ± 2.5 µM
  kcat: 0.77 ± 0.01 s⁻¹
  kcat/Km: 11460 ± 210 M⁻¹ s⁻¹
[3]
  Km: 74.3 ± 1.1 µM
  kcat: 0.66 ± 0.01 s⁻¹
  kcat/Km: 8860 ± 10 M⁻¹ s⁻¹
[4]
  Km: 58.1 ± 3.4 µM
  kcat: 0.57 ± 0.02 s⁻¹
  kcat/Km: 9880 ± 310 M⁻¹ s⁻¹
[5]
  Km: 317 ± 6.6 µM
  kcat: 0.85 ± 0.04 s⁻¹
  kcat/Km: 2670 ± 60 M⁻¹ s⁻¹
[6]
  Km: 168 ± 11.3 µM
  kcat: 0.80 ± 0.03 s⁻¹
  kcat/Km: 4790 ± 430 M⁻¹ s⁻¹
[7]
  Km: 2290 ± 344 µM
  kcat: 0.29 ± 0.04 s⁻¹
  kcat/Km: 310 ± 0 M⁻¹ s⁻¹
[8]
  Km: 151 ± 3.7 µM
  kcat: 0.82 ± 0.02 s⁻¹
  kcat/Km: 5450 ± 140 M⁻¹ s⁻¹
[9]
  Km: 192 ± 3.6 µM
  kcat: 0.90 ± 0.05 s⁻¹
  kcat/Km: 4700 ± 220 M⁻¹ s⁻¹
[10]
  Km: 232 ± 3.5 µM
  kcat: 0.74 ± 0.01 s⁻¹
  kcat/Km: 3190 ± 80 M⁻¹ s⁻¹
[11]; PAL activity (Phe)
  kcat relative to wild type: 0.25 fold
[11]; PAL activity
  Km toward Phe relative to corresponding wild-type enzymes: 0.04 fold
[12]
  Km toward Phe relative to corresponding wild-type enzymes: 35 fold
Grass PTAL enzymes
  Km: 150 to 227 µM
